{
  "source": "patent US10370364B1",
  "about": "“Substituted chromenes for treatment of fibrosis or non-alcoholic steatohepatitis” (OSTEONEUROGEN INC., priority 2018, dated 2019)",
  "key": {"[1]": {"assay": "Solubility in phosphate buffer (pH 7.4)", "settings": "phosphate buffer pH 7.4, 1 mg/ml added, 16 hours, HPLC-UV", "method": "The compound of the present invention was added to phosphate buffer (pH 7.4) at a concentration of 1 mg/ml and stirred. After 16 hours, the sample was filtered through a filter, and the supernatant was analyzed by HPLC-UV, thereby determining the content of compound dissolved."}, "[2]": {"assay": "Concentration of compound in plasma and lung of bleomycin fibrotic mice", "type": "in vivo", "settings": "1 hour after final administration; pirfenidone 100 mpk, Compound 1 10-100 mpk PO", "method": "The amounts of the compound present in the plasma and lung of each of the sacrificed mice (finally administered with each compound at 1 hour before sacrifice) were measured. […] If it is attempted to formulate the compound of the present invention in various manners, it is expected that the compound of the present invention can effectively treat fibrosis even at lower concentrations."}, "C57BL/6 mice": {"system": "C57BL/6 mice", "assay": "Bleomycin-induced pulmonary fibrosis animal model", "type": "in vivo", "from_the_text": "5-week-old male C57BL/6 mice (weighed 18.2 to 20.5 g) (KOATECH, Korea) were used as experimental animals and divided into several groups, each consisting of 5 animals.\nThe experimental animals were housed in a housing box having a size of 369 L×156 W×132H (mm) (EU, USA, UK GL compliance) made of a polysulfone material in a SPF (Specific Pathogen Free) and BSL (Bio Safety Level) 2 grade facility. The number of animals in each housing box was 2 to 3 during the period of quarantine and acclimatization and was also 2 to 3 during the experimental period, and the housing conditions were set to a temperature of 22±2° C., a relative humidity of 50.0±15.0%, a ventilation cycle of 10 to 20 times/hr, a light-dark cycle (a photoperiod) of 12 hr/day (07:00 to 19:00), and an illumination intensity of 150 to 300 Lux.\nPulmonary fibrosis was induced by injecting a bleomycin solution directly into the lungs via the trachea according to the intratracheal instillation (IT) method of Kremer, Laxer and Berkman et al. Specifically, C57BL/6J mice were anesthetized through inhalation with 70% N2O and 30% O2 gas and 1.5% isoflurane, and the skin of the anterior neck thereof was excised and the organs under the muscle thereof were exposed and then carefully excised using ophthalmic surgical scissors. 50 μL of a solution of bleomycin in distilled water was injected directly into the lungs all at once via the excised organ by use of a 1 mL syringe fitted with a 19-gauge injection needle having a blunt tip. Immediately after the injection, the excised skin of the anterior neck was sutured and the mice were allowed to recover from the anesthetic, and then housed in a general housing cage. The administration of bleomycin was performed using a visual instillobot, and bleomycin-HCl 40 μg/50 μL was administered once and a pulmonary fibrosis induction period of 12 days was set.\nThe compound of the present invention was used after dissolution in 30% HPCD aqueous solution (Formulation Example 5), and the dose for each individual was calculated based on the recent body weight thereof. 12 Days after the administration of bleomycin, the compound of the present invention was administered once a day (5 times a week) for 2 weeks. As a control, pirfenidone which is a therapeutic agent for idiopathic pulmonary fibrosis was administered in the same manner.\nOn 15 days after administration of the compound, the mice were sacrificed, and then the right lung of each mouse was dissected and the weight thereof was measured. […] In particular, it is noted that the inhibitory effect of the compound in the group administered at 10 mpk was the highest compared to that in the group administered at 50 or 100 mpk and was also higher than that in the group administered with pirfenidone 100 mpk.\nThe amounts of hydroxyproline (HP) and collagen in the dissected right lung were measured using a known method.\nHistopathology collagen morphometry of the dissected left lung tissue was performed using a known method (calculating the area of collagen in an optical image obtained by Sirius red staining of the lung tissue sample).\nThe pathological conditions of the left lung tissue dissected using a known method were examined by H&E and Sirius Red staining. […] In particular, it is noted that the inhibitory effect of the compound in the group administered at 10 mpk was the highest compared to that in the groups administered at other concentrations.\nIn order to examine the effect of each treatment in this Experiment on the liver, the liver of each of the sacrificed mice was dissected, and the pathological conditions of the liver tissue were examined by H&E staining."}, "STAM mice": {"system": "STAM mice", "assay": "Non-alcoholic steatohepatitis animal model (STAM mice), NAFLD activity score", "type": "in vivo", "settings": "30 mpk oral", "method": "STAM mice (SMC Laboratories, Inc., Japan), which are non-alcoholic steatohepatitis animal models, were used as experimental animals. These animal models were administered with streptozotocin immediately after birth, and fed with high-fat-diet after 3 weeks. Then, in the mouse model, non-alcoholic steatohepatitis occurred at 6 to 9 weeks, and liver fibrosis, cirrhosis and liver cancer occurred within 9 to 12 weeks.\nOver 6 to 9 weeks after administration of streptozotocin, the compound of the present invention, dissolved in a mixture solution of Tween80 and 0.5% CMC aqueous solution (1:99 (v/v)) (Formulation Example 2), was orally administered to the animal models once a day (five times a week). As controls, telmisartan and OCA (obeticholic acid) were administered in the same manner.\nAt […] after administration of streptozotocin (a time point after 3-week administration of the compound), the mice were sacrificed, the liver of each mouse was dissected, the invasion of inflammatory cells was observed by […] of the liver tissue, and fibrosis of the liver tissue was observed by Sirius Red staining (see FIG. 42). In addition, the degrees of inflammation, fibrosis, liver cell ballooning and adipose accumulation observed were measured, data integration was performed, and the NAFLD (nonalcoholic fatty liver disease) activity score was statistically processed by t-test."}},
  "data": [
    {"compound": "CC/C(=C(/CC)c1ccc(O)cc1)c1ccc(O)cc1", "note": "[Diethyl stilbesterol, reference compound]", "values": [
      {"measurement": "Solubility", "setting": "[1]", "result": 4.50, "unit": "µg/mL"}
    ]},
    {"compound": "Cc1ccc(=O)n(-c2ccccc2)c1", "note": "[Pirfenidone, reference compound]", "values": [
      {"measurement": "concentration of the compound in the lung", "setting": "[2]", "result": "high"},
      {"measurement": "concentration of the compound in the plasma", "setting": "[2]", "result": "high"},
      {"measurement": "Protection Collagen %", "setting": "C57BL/6 mice; 100 mpk PO", "result": 34, "unit": "%"},
      {"measurement": "Mean Collagen % (histopathology collagen morphometry, left lung)", "setting": "C57BL/6 mice; 100 mpk PO, Sirius red", "result": 4.1, "unit": "%"},
      {"measurement": "pathological condition of liver tissue, H&E staining", "setting": "C57BL/6 mice; bleomycin mice, 100 mpk", "result": "showed hepatotoxic symptoms"}
    ]},
    {"compound": "CCCc1nc2c(C)cc(-c3nc4ccccc4n3C)cc2n1Cc1ccc(-c2ccccc2C(=O)O)cc1", "note": "[telmisartan, reference compound]", "values": [
      {"measurement": "NAFLD activity score (t-test)", "setting": "STAM mice", "result": "statistically significant anti-NASH effects"}
    ]}
  ]
}
